In patent US20240287564A1, “ACHOLETIN BIOPOLYMERS AND METHODS FOR ENZYMATIC SYNTHESIS” (THE UNIVERSITY OF BRITISH COLUMBIA, priority 2021, published 2024):
One block for each molecule: values may come before it.

What was measured:
[1] = molecular target: T1, AchP (Acholeplasma laidlawii, UniProt A9NH41); experiment: AchP reverse phosphorolysis kinetics (phosphate release, molybdenum blue); assay type: biochemical; details: as donor (GalNAc1-P) or acceptor (glucose); reasonable substrate and enzyme concentrations
[2] = molecular target: T1, AchP; experiment: Purified AchP donor and acceptor specificity screen; assay type: biochemical; details: 3 h room temperature, absorbance 655 nm
Method: AchP was heterologously expressed, purified and screened, in the absence of cell lysate, against an extended set of donors and acceptors, including additional N-acetamido sugars, using a phosphorylase screening method described previously that couples the chromogenic development of molybdenum blue to the liberation of free phosphate during reverse phosphorolysis^39,41 (FIG. 1A). When incubated with Glc1-P as donor, AchP was active in the presence of the acceptors GlcNAc, GlcNAc-β1-pNP, GalNAc and GlcNAc-β1,4-GlcNAc, while no activity was detected with the non-acetylated glucosamine and galactosamine. With GlcNAc1-P as donor, AchP was active with all acceptors that contained an N-acetyl moiety, as well as with glucose and glucosamine, but not galactose and galactosamine.
Thirty-six donor and acceptor combinations were done with purified AchP in a 25 μL reaction volume. 10 μL buffer (200 mM HEPES pH 7.0, 200 mM NaCl, 10 mM MgSO4, 400 mM sodium molybdate) was combined with 5 μL water, 2.5 μL donor (100 mM Glc1-P, 100 mM GlcNAc1-P or 100 mM GalNAc1-P) and 2.5 acceptor (500 mM Glc, 400 mM GlcN, 500 mM GlcNAc, 100 mM GlcNAc-β1-pNP, 500 mM Gal, 500 mM GalN, 500 mM GalNAc, 100 mM GalNAc-α1-pNP, 100 mM Glc-β1,3-Glc, 100 mM GlcNAc-β1,4-GlcNAc, 500 mM ManNAc or no acceptor) in a 200 μL PCR tube. 5 μL of purified AchP (0.2 mg/mL) was added to each reaction which were then incubated for 3 h at room temperature. Each 25 μL reaction was transferred to a separate well of a 96-well plate. 75 μL of development solution was added to each well then incubated for 5 min at room temperature before the reaction was stopped by adding 50 μL of quenching solution. Absorbance at 655 nm was measured with a BioTek Synergy H1 Hybrid™ microtiter plate reader.

[3] = molecular target: T1, AchP; experiment: AchP reverse phosphorolysis kinetics (phosphate release, molybdenum blue); assay type: biochemical
Method: (§1) Kinetic parameters for AchP reverse phosphorolysis were determined using the phosphate release method described previously^44. In brief, phosphate release was coupled to the formation of molybdenum blue, which can be quantified by measuring absorbance at 655 nm. Phosphate concentration was determined using a standard curve ranging between 0 and 10 mM phosphate. Kinetic parameters for AchP were determined with four donor and acceptor combinations: (A) Glc1-P and GlcNAc, (B) Glc1-P and GalNAc, (C) GlcNAc1-P and GlcNAc, and (D) GlcNAc1-P and GalNAc. Donor concentration was held constant at 10 mM while the concentrations of the acceptors were varied (as described below). Reactions were initiated by adding 5 μL of 0.25 mg/mL AchP to 10 μL 2× buffer (200 mM HEPES pH 7.0, 200 mM NaCl, 10 mM MgSO4 and 400 mM sodium molybdate), 2.5 μL of 100 mM donor, 2.5 μL of […] acceptor and 5 μL water. Reactions were stopped at the times (t) indicated below by boiling for 5 min, then 20 μL from each reaction was transferred to a 96-well plate. Molybdenum blue formation was initiated by adding 90 μL of color development solution (0.1 N HCl and 0.24% sodium ascorbate) then incubated for 30 min at room temperature. The color development reaction was stopped by adding 90 μL of quenching solution (68 mM sodium citrate and 2% acetic acid). Absorbance at 655 nm was measured with a BioTek Synergy H1 Hybrid™ microtiter plate reader. All reactions were performed in triplicate and acceptor concentrations were chosen to encompass apparent Km value where possible. (A) 10 mM Glc1-P; 0, 1, 5, 10, 25, 50, 100, 200 and 300 mM GlcNAc; t=2 min 45 s. (B) 10 mM Glc1-P; 0, 5, 25, 50, 100, 150, 200, 300 and 380 mM GalNAc; t=5 min. (C) 10 mM GlcNAc1-P; 0, 0.1, 0.25, 0.5, 1, 2, 5, 10, 25 and 50 mM GlcNAc; t=3 min. (D) 10 mM GlcNAc1-P; 0, 5, 10, 25, 50, 100, 150, 200 and 300 mM GalNAc; t=3 min. Non-linear regression was performed using GraphPad Prism™ version 6.0. For (A) and (C) data were fit using the Michaelis-Menten equation incorporating substrate inhibition: For (B) and (D) data were fit using the standard Michaelis-Menten equation: […]

[4] = molecular target: GH101 endo-α-N-acetylgalactosamindase (EngSP) (Streptococcus pneumoniae, UniProt Q8DR60); details: only minimal aglycone release in controls
Sequence of GH101 endo-α-N-acetylgalactosamindase (EngSP) (Q8DR60 40-1738 limits assumed): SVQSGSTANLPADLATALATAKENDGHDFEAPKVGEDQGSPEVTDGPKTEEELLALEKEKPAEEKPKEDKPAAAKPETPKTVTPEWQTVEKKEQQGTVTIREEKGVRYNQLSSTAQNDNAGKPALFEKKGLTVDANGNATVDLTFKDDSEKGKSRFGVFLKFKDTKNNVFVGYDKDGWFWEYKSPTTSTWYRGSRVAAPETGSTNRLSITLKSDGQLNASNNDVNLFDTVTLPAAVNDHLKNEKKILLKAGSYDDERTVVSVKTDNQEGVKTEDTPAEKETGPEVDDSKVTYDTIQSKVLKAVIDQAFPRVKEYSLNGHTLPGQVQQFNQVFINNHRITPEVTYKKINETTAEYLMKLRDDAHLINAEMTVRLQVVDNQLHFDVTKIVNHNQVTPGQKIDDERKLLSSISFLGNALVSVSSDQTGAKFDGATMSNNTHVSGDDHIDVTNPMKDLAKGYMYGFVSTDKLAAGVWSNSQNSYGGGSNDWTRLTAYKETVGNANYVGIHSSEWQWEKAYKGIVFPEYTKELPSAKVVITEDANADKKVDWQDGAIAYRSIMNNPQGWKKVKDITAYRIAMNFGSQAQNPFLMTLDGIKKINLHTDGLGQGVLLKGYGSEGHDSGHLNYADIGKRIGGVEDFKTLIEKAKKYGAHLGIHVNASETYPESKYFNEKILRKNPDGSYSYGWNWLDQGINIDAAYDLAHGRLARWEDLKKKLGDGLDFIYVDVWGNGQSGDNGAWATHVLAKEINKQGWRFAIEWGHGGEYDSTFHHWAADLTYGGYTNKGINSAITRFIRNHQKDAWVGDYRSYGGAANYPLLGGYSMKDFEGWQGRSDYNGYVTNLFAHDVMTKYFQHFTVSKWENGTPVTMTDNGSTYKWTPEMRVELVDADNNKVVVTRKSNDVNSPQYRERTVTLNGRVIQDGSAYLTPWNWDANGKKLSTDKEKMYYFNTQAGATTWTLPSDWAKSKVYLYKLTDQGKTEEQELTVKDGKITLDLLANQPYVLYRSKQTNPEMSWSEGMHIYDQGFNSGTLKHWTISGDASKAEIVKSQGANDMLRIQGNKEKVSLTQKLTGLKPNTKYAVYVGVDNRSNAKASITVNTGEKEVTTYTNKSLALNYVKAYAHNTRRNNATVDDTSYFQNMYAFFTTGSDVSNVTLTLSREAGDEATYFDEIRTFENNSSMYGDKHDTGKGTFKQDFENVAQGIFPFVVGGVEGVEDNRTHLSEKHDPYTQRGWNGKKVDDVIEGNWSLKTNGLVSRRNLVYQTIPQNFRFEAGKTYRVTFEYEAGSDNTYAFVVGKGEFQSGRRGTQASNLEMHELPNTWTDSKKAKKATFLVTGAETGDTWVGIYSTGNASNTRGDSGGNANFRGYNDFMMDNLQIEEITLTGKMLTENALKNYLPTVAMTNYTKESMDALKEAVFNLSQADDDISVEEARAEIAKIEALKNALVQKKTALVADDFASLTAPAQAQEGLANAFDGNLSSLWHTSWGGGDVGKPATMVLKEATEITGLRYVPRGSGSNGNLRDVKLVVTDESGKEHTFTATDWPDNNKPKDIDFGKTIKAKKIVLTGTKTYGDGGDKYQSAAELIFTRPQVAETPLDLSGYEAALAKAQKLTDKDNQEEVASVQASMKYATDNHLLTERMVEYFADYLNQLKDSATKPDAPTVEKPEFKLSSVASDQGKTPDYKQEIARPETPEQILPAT
Method: Both GlcNAc-β1,3-GalNAc-MU and GlcNAc-β1,3-GalNAc-pNP were assayed as potential substrates for the core 3 T-antigen cleaving enzyme endo-α-N-acetylgalactosaminidase from Streptococcus pneumoniae R6 (EngSP)^47,66. For GlcNAc-β1,3-GalNAc-MU, in a 96-well plate 2 μL of the AchP reaction was combined with 48 μL reaction buffer A and reaction initiated by adding 0.4 μL spGH101 (10 mg/mL). Release of MU was monitored continuously in a BioTek Synergy H1 Hybrid™ microtiter plate reader (Ex. 365 nm, Em. 440 nm) (FIG. 6). For GlcNAc-β1,3-GalNAc-pNP, in a 96-well plate 10 μL of the AchP reaction was combined with 39 μL reaction buffer A and initiated by adding 1 μL EngSP (10 mg/mL). Release of pNP was monitored continuously in a BioTek Synergy H1 Hybrid™ microtiter plate reader (absorbance 400 nm) (FIG. 6).

[5] = molecular target: T1, AchP; experiment: AchP forward phosphorolysis product analysis (TLC); assay type: biochemical; details: with phosphate
Method: (A) AchP products with GlcNAc1-P (donor) and GlcNAc (GNAc1), GlcNAc-β1,4-GlcNAc (GNAc2), or GlcNAc(-β1,4-GlcNAc)3 (GNAc4) (acceptors) were analyzed by TLC, where the products are outlined in black boxes. (B) AchP forward phosphorolysis product analysis with GlcNAc-β1,4-GlcNAc and phosphate and the reverse phosphorolysis with Glc1-P and GlcNAc was include as a control reaction.
Of the six activities described to date in the GH94 family only the N,N′-diacetylchitobiose phosphorylases (ChbP) are known to use GlcNAc1-P as donor, transferring only to monosaccharide GlcNAc acceptors and not to di- or trisaccharides. The other five types utilize Glc1-P. The bacteria from which both characterized ChbPs were discovered are native to marine environments where chitin, a polysaccharide of β1,4-linked GlcNAc and the primary structural component of the exoskeleton of marine invertebrates, is common. Presumably these ChbPs act on disaccharides released from chitin by chitinases. AchP on the other hand is able to utilize GlcNAc-β1,4-GlcNAc and GlcNAc(-β1,4-GlcNAc)3 as acceptors performing iterative addition of N-acetylglucosaminyl residues (FIG. 4A). As noted earlier, we initially anticipated that AchP was a chitin phosphorylase. […]

[6] = substrate: CC(=O)NC1C(O)[C@@H](O)C(CO)O[C@@H]1O; experiment: AchP reverse phosphorolysis kinetics (phosphate release, molybdenum blue); assay type: biochemical, Acholeplasma laidlawii; details: other: donor αGlcNAc1-P 10 mM; acceptor concentration varied; pH 7.0
Method: as §1

[7] = substrate: CC(=O)NC1C(O)[C@H](O)C(CO)O[C@H]1O; experiment: as above; assay type: biochemical, Acholeplasma laidlawii; details: acceptor concentration varied, pH 7.0
Method: as §1

Activities (kinetic parameters not determined) [1]: too low
Molecule: CC(=O)N[C@H]1C(OP(=O)(O)O)O[C@H](CO)[C@H](O)[C@@H]1O (stereo partly drawn) [GalNAc1-P]

AchP activity with acceptor ([2]; Glc1-P as donor): active | kcat ([3]; donor αGlc1-P 10 mM, acceptor concentration varied): 12.5 ± 0.5 s⁻¹
Molecule: CC(=O)NC1C(O)[C@@H](O)C(CO)O[C@@H]1O (stereo partly drawn) [GalNAc, N-acetylgalactosamine]

Km value lower than with Glc1-P as donor ([3]; GlcNAc as acceptor): ~10 fold | kcat greater than with Glc1-P as donor ([3]; GlcNAc as acceptor): 2 fold
Molecule: CC(=O)N[C@H]1[C@@H](OP(=O)(O)O)O[C@H](CO)[C@@H](O)[C@@H]1O [GlcNAc1-P, α-N-acetylglucosamine 1-phosphate]

AchP activity with acceptor ([2]; Glc1-P as donor): active | Ki ([3]; donor αGlcNAc1-P 10 mM, substrate inhibition fit): 27.1 ± 3.6 mM
Molecule: CC(=O)NC1C(O)[C@H](O)C(CO)O[C@H]1O (stereo partly drawn) [GlcNAc, N-acetyl-glucosamine]

Molecule: CC(=O)NC1C(OC2C(O)C(CO)OC(Oc3ccc4c(C)cc(=O)oc4c3)C2NC(C)=O)OC(CO)C(O)C1O (stereo not drawn) [GlcNAc-β1,3-GalNAc-α1-MU]
aglycone release after incubation with EngSP [4]: release of both pNP and MU aglycones could be detected

Molecule: CC(=O)NC1C(OC2C(O)C(CO)OC(Oc3ccc([N+](=O)[O-])cc3)C2NC(C)=O)OC(CO)C(O)C1O (stereo not drawn) [GlcNAc-β1,3-GalNAc-α1-pNP]
aglycone release after incubation with EngSP [4]: release of both pNP and MU aglycones could be detected

AchP activity with acceptor ([2]; Glc1-P as donor): active | phosphorolysis (substrate cleavage) [5]: no substrate cleavage could be detected
Molecule: CC(=O)N[C@H]1[C@H](O[C@H]2[C@H](O)[C@@H](NC(C)=O)C(O)O[C@@H]2CO)O[C@H](CO)[C@@H](O)[C@@H]1O (stereo partly drawn) [GlcNAc-β1,4-GlcNAc, N,N′-diacetylchitobiose]

AchP activity with acceptor ([2]; Glc1-P as donor): active
Molecule: CC(=O)N[C@H]1[C@H](Oc2ccc([N+](=O)[O-])cc2)O[C@H](CO)[C@@H](O)[C@@H]1O [GlcNAc-β1-pNP]

AchP activity with acceptor ([2]; Glc1-P as donor): no activity | AchP activity with acceptor ([2]; GlcNAc1-P as donor): not
Molecule: N[C@H]1C(O)O[C@H](CO)[C@H](O)[C@@H]1O (stereo partly drawn) [galactosamine]

Molecule: O=C[C@H](O)[C@@H](O)[C@@H](O)[C@H](O)CO [galactose, D-galactose]
AchP activity with acceptor ([2]; GlcNAc1-P as donor): not

AchP activity with acceptor ([2]; Glc1-P as donor): no activity | AchP activity with acceptor ([2]; GlcNAc1-P as donor): active
Molecule: N[C@H]1C(O)O[C@H](CO)[C@@H](O)[C@@H]1O (stereo partly drawn) [glucosamine]

AchP activity with acceptor ([2]; Glc1-P as donor): no activity
Molecule: OC[C@H]1O[C@@H](O[C@H]2[C@H](O)[C@@H](CO)OC(O)[C@@H]2O)[C@H](O)[C@@H](O)[C@@H]1O (stereo partly drawn) [laminaribiose]

B1: AchP (Acholeplasma laidlawii PG-8A) (protein)
chain: MKLKQDVISIYQKISLFESGQLNITKLASGAYYLDDELTLITDPVNSGARFPYAVNGMTIWAYASGYISINHSSYYILPPNLEGKEPFLDFFGIEQDGNNTYPVSLLGVSERNDEIENKRYTVFSKNIAYYITVTKNFLYAVTVYISKDFKIYFNTVAHNLTGETKQITLSSFFNMLFKYDSGESIETKWFKKVSYENNMFIYDAPEDIDRHTRIENYGVVKRHLHTKPKNIQNTTSRIDYVGKRYRSVRNALSIRSLKFEKAPLVTNFTDTAINADLINYEVKAYDTIISSYRIETCHDKDTLNKMMASDLTDKEIKKVYEGLSNTQSYDFDNFGISFKGVNDNRVDDKVLNQFLKLVNYQIHFSSLSSNSGTVFLGVRDVMQQLESSLIWDRKNVRSKILEVLSFIDPSGLPPRQYALPPKEGNPRMDLRPFIDQGLWIISTLHTYLAYTEDYDILNEVCGYYERIEPNSAKKSKVENSVLEHLIRVTNYLVSNIDPSTYGLKALYGDWNDALDGLGLIEGSSGYGNGVSVMATLQLYENLERMIEILKLVDPQNEHINTYEVVRHNLSLGINKYAVVIKQDEKRVLHGWGHDRSYFVGSFNDPDGHSRNSLTSNAFYIISDMIKNTPEMKPHLLHAFHNLDSKYGLKTFDPAMQDFHGFGRIINLPPGTAENAATYVHATLFGVLALYMLGEGDFANEQVLKVLPITKKEMSTSPFIMPNSYVHNEELNMDGESMSDWYTGSANTLLKTLIRGLFGLEVKFDHLRLRPSKAFFSKEATLMVSIGNKLTRIVYKNNNNGNRTFKLNGKVIEAKLDTLSGLLYIDINKSILEHQNVIHIQD
Km [6]: 71.4 ± 4.1 mM | kcat [6]: 46.7 ± 0.9 s⁻¹ | kcat/Km [6]: 700 ± 200 M⁻¹ s⁻¹ | Km ([7]; other: donor αGlc1-P 10 mM): 29.9 ± 3.7 mM | kcat ([7]; other: donor αGlc1-P 10 mM): 24.2 ± 1.6 s⁻¹ | kcat/Km ([7]; other: donor αGlc1-P 10 mM): 800 ± 400 M⁻¹ s⁻¹ | Km ([7]; other: donor αGlcNAc1-P 10 mM): 3.5 ± 0.4 mM | kcat ([7]; other: donor αGlcNAc1-P 10 mM): 50.8 ± 3.2 s⁻¹ | kcat/Km ([7]; other: donor αGlcNAc1-P 10 mM): 14500 ± 8000 M⁻¹ s⁻¹
